Results published in PMC4492579, “Potent and Selective Triazole-Based Inhibitors of the Hypoxia-Inducible Factor Prolyl-Hydroxylases with Activity in the Murine Brain” (PLoS ONE, 2015).
pIC50: −log10 of the molar value. Where a name gives a salt, the structure may show the parent alone.

Key:
JMJD2C (KDM4C) = molecular target: T1, JMJD2C (KDM4C) (Homo sapiens, UniProt Q9H3R0); parameters: method as in PMID 26682036; details: cited from earlier work
T1 sequence (Q9H3R0 1-1056): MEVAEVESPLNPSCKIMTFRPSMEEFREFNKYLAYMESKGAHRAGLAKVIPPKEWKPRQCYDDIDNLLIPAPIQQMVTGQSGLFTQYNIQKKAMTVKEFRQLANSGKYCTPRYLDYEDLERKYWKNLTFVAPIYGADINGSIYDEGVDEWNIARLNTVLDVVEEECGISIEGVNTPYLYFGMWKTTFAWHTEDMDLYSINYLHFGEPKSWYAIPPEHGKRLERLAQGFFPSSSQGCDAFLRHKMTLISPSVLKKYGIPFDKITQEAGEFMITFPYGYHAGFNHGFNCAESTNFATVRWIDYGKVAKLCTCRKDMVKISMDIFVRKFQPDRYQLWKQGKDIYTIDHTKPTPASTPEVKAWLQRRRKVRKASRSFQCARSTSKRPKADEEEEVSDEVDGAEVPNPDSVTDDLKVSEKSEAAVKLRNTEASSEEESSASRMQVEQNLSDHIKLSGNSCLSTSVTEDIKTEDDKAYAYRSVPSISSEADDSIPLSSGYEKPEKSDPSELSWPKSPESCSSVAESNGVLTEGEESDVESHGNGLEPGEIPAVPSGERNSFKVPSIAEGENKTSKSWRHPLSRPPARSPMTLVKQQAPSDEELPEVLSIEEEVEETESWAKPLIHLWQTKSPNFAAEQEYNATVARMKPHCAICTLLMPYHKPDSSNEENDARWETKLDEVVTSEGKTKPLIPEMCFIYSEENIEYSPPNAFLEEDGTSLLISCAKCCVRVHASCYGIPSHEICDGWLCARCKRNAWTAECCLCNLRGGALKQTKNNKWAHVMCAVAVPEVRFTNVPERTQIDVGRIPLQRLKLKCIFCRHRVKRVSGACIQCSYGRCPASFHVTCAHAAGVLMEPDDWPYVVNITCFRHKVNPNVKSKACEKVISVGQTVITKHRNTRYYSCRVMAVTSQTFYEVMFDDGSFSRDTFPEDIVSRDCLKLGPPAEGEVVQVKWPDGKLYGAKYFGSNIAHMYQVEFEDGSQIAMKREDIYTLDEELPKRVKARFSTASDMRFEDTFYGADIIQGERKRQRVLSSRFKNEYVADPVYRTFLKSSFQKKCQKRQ

FIH = FIH (Homo sapiens, UniProt Q9NWT6); assay: FIH liquid chromatography-mass spectrometry assay (RapidFire)
Description: After 15 minutes, the enzyme reaction was stopped by the addition of 4 ml 10% formic acid and the reaction mixture transferred to a RapidFire RF360 high throughput sampling robot. Samples were aspirated under vacuum onto a C4 Solid Phase Extraction (SPE) cartridge. […] Ion chromatogram data was extracted for the non-hydroxylated peptide substrate and the hydroxylated peptide product and peak area data for extracted ion chromatograms were integrated using RapidFire Integrator software. Percentage conversion of substrate to product was calculated in Microsoft Excel and IC50 values were calculated using Graphpad Prism 5.

JMJD2E (KDM4E) = molecular target: T2, JMJD2E (KDM4E) (Homo sapiens, UniProt B2RXH2); assay: KDM AlphaScreen assay, JMJD2E
T2 sequence (B2RXH2 1-506): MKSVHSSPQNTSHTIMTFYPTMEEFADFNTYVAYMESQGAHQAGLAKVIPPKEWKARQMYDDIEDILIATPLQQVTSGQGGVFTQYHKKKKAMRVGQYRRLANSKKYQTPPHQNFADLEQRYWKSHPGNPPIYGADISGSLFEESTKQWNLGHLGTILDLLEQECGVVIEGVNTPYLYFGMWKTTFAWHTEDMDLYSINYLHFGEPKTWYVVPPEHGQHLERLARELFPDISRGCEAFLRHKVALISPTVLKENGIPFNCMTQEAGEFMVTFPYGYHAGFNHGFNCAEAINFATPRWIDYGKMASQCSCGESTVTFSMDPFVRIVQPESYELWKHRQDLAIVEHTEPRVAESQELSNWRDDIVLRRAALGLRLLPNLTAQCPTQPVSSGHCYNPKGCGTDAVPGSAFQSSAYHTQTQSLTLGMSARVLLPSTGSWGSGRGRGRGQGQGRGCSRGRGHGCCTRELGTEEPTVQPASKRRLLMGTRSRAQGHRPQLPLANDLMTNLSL
Description: Inhibition assays for PHD2 (AlphaScreen) [9], the KDMs (AlphaScreen) [17], BBOX [18] and FTO [19] were carried out as previously described. […] IC50 values were calculated using nonlinear regression with normalized dose-response fit using GraphPad Prism 5.

HeLa cells = assay: Immunoblotting of HIF1α induction in HeLa cells; type: cell-based, human; details: VHL-competent HeLa cells, immunoblot
Description: Human cell lines (RCC4, HeLa, Hep3B, MCF-7 and U2OS) were cultured in DMEM (D6546-500ML; Sigma Aldrich) each supplemented with 10% fetal bovine serum (F7524-500ML; Sigma Aldrich), 2 mM L-glutamine (G7513- 100ML; Sigma Aldrich), 50 units/ml of penicillin, and 50 μg/ml of streptomycin (P0781-100ML; Sigma Aldrich). The RCC4 cell line was a gift from C.H.C.M. Buys (University of Groningen, [2]), the HeLa and Hep3B cell lines were from the European Collection of Cell Cultures (ECACC), the MCF-7 cell line was from the American Type Culture Collection (ATCC) and the U2OS cell line was a gift from S.Galey (ICRF Clare Hall Laboratories, United Kingdom). Cells were treated either with DMSO (control) or compounds (dissolved in DMSO) and added directly into the cell culture medium to the desired final concentration for 4–5 h as previously described.
Cells were extracted using urea/SDS buffer (6.7 M urea, 10 mM Tris-HCl pH 6.8, 10% glycerol and 1% SDS) and processed for immunoblotting as described. The following primary antibodies were used for immunoblotting: mouse monoclonal HIF1α antibody clone 54 (610958, BD Transduction Laboratories, 1:1000), rabbit polyclonal HIF1α hydroxy-Pro402 antibody (07–1585, Millipore, 1:1000), rabbit monoclonal HIF1α hydroxy-Pro564 antibody clone D43B5 (3434S, Cell Signaling, 1:500), mouse monoclonal HIF1α hydroxy-Asn803 antibody (a kind gift from Dr M. K. Lee, Republic of Korea, 1:4000), mouse monoclonal PHD2 antibody clone 76a (1:10), mouse monoclonal FIH antibody clone 162c (1:200) and β-actin/HRP (clone AC15, Abcam). HRP-conjugated swine polyclonal anti-rabbit IgG (P0399, Dako), and goat polyclonal anti-mouse IgG (P0447, Dako) were used as secondary antibodies.
In this cell line, the extent of the differential HIF1α prolyl hydroxylation at the N-terminal and C-terminal oxygen-dependent degradation domains (HyPro402 and HyPro564, respectively), as well as HIF1α asparaginyl hydroxylation at the C-terminal transactivation domain (HyAsn803) can be interrogated by immunoblotting using hydroxylation specific antibodies.

FIH, sequence (Q9NWT6 whole entry): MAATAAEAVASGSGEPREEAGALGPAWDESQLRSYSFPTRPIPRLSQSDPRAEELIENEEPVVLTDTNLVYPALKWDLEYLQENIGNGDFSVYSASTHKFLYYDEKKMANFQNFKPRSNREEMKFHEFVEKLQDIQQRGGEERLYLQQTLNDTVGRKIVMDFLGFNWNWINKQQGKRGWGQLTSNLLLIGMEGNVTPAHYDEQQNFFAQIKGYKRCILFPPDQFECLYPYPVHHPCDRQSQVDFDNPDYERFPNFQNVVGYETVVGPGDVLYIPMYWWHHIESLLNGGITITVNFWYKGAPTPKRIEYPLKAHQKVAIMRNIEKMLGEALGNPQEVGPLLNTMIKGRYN

Structure (SMILES) | pIC50 (JMJD2C (KDM4C)) | pIC50 (FIH) | pIC50 (JMJD2E (KDM4E)) | HIF1α induction (HeLa cells) | concentration at which activity (HIF1α induction) observed (HeLa cells)
O=C(O)CNC(=O)c1c(O)c2ccccc2n(Cc2ccccc2)c1=O [IOX2] | 4.00 | < 4.00 | – | – | –
CC(C)(C)OC(=O)c1ccc(-n2[nH]cc(-n3ccnn3)c2=O)nc1 [IOX4, t-Butyl 6-(5-oxo-4-(1H-1,2,3-triazol-1-yl)-2,5-dihydro-1H-pyrazol-1-yl)nicotinate] | – | – | < 4.70 | induced HIF1α | ≥ 1 µM
O=C(O)c1ccc(-n2[nH]cc(-n3ccnn3)c2=O)nc1 [compound 1, 6-(5-oxo-4-(1H-1,2,3-triazol-1-yl)-2,5-dihydro-1H-pyrazol-1-yl)pyridine-3-carbocylic acid hydrochloride] | – | – | < 4.70 | induced HIF1α | –
